Measurements reported in patent publication US10168342B2, “Lipid probes and uses thereof” (THE SCRIPPS RESEARCH INSTITUTE, priority 2015, dated 2019).

Legend:
Assay in all cases: isoTOP-ABPP mapping of AEA-DA-modified peptides in Neuro2a cells
Format in all cases: cell-based
[1] = target: T1, AEA-DA-modified peptides in Neuro2a cells (Mus musculus, UniProt O35737); settings: AEA-DA-modified peptide HNRNPH 1 O35737 50-69, SEQ ID NO 49; probe 100 μM, 12 replicates
T1 construct: endogenous in cells; host or cells: Neuro2a
T1 sequence (O35737 whole entry): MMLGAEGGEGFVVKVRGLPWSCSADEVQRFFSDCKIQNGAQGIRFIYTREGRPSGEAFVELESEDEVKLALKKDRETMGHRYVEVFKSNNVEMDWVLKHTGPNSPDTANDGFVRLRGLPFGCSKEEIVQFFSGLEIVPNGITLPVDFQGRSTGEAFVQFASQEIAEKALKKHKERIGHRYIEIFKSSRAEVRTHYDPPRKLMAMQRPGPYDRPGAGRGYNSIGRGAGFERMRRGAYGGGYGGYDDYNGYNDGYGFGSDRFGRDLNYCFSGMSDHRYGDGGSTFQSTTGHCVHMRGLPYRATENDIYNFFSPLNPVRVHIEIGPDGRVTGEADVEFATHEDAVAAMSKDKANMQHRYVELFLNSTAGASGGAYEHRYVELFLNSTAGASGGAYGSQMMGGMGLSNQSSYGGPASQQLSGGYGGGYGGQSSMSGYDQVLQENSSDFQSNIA

[2] = target: T2, AEA-DA-modified peptides in Neuro2a cells (Mus musculus, UniProt O88545); settings: AEA-DA-modified peptide COPS6 O88545 274-295, SEQ ID NO 24; probe 100 μM, 12 replicates
T2 construct: endogenous in cells; host or cells: Neuro2a
T2 sequence (O88545 whole entry): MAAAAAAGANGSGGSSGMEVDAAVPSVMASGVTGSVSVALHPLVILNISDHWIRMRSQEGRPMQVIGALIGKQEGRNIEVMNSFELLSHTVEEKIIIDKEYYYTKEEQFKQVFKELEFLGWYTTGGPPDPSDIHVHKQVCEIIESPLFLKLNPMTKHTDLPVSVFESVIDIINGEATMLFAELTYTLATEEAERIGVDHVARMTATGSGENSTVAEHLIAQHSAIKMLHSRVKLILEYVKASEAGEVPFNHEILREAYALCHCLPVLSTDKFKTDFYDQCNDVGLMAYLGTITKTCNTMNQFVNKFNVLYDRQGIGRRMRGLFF

[3] = target: T3, AEA-DA-modified peptides in Neuro2a cells (Mus musculus, UniProt P21619); settings: AEA-DA-modified peptide LMNB2 P21619 137-160, SEQ ID NO 57; probe 100 μM, 12 replicates
T3 construct: endogenous in cells; host or cells: Neuro2a
T3 sequence (P21619 whole entry): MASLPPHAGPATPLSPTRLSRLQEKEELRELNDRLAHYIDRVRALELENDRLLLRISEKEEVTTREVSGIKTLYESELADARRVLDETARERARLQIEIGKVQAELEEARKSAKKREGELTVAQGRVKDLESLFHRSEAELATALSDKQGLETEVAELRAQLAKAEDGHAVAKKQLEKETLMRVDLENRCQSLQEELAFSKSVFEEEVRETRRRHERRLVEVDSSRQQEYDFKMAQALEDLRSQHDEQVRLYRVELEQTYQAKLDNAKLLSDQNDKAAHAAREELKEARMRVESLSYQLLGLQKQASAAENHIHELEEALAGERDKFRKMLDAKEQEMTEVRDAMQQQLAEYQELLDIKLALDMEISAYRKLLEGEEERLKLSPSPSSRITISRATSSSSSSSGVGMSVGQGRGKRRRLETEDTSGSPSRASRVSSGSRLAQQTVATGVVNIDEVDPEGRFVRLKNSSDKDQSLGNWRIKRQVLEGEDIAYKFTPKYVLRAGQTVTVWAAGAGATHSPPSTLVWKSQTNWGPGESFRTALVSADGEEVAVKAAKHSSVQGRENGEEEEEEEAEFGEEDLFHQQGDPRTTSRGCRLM

[4] = target: T4, AEA-DA-modified peptides in Neuro2a cells (Mus musculus, UniProt P57780); settings: AEA-DA-modified peptide ACTN4 P57780 839-855, SEQ ID NO 4; probe 100 μM, 12 replicates
T4 construct: endogenous in cells; host or cells: Neuro2a
T4 sequence (P57780 whole entry): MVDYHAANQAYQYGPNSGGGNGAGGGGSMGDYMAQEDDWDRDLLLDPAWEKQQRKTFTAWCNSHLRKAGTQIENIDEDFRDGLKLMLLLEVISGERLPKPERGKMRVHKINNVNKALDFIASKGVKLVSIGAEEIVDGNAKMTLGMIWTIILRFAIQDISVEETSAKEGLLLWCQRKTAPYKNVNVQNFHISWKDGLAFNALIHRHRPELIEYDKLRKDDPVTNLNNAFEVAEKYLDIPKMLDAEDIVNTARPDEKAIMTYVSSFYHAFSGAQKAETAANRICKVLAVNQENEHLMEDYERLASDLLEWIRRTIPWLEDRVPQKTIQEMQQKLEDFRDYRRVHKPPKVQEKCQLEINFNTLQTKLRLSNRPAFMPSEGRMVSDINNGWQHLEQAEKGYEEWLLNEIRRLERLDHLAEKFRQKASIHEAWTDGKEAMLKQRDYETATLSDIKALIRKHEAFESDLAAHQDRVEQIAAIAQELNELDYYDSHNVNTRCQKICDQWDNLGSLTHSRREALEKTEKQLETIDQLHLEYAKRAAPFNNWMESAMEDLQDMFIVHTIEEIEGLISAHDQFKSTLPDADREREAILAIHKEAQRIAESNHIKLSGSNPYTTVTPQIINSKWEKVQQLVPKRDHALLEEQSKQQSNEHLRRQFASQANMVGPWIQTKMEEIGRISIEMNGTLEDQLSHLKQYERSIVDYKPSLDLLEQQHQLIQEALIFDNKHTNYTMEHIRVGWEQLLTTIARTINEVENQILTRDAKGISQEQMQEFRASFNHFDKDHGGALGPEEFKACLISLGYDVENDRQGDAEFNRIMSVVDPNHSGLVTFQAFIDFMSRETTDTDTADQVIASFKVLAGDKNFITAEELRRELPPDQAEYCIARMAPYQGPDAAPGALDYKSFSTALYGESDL

[5] = target: T5, AEA-DA-modified peptides in Neuro2a cells (Mus musculus, UniProt Q78ZA7); settings: AEA-DA-modified peptide NAP1L4 Q78ZA7 84-94, SEQ ID NO 66; probe 100 μM, 12 replicates
T5 construct: endogenous in cells; host or cells: Neuro2a
T5 sequence (Q78ZA7 whole entry): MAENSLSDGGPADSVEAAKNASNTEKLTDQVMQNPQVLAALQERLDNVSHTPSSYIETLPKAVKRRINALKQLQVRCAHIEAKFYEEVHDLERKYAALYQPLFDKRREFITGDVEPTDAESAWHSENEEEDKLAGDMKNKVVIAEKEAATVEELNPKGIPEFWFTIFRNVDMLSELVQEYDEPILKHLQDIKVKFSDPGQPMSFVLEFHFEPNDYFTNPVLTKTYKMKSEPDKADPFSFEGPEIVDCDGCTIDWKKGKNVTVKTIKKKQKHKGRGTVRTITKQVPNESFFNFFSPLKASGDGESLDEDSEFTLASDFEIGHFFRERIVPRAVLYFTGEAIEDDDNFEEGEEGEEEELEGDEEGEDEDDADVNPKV

[6] = target: T6, AEA-DA-modified peptides in Neuro2a cells (Mus musculus, UniProt Q80UU9); settings: probe 100 μM, 12 replicates
T6 construct: endogenous in cells; host or cells: Neuro2a
T6 sequence (Q80UU9 whole entry): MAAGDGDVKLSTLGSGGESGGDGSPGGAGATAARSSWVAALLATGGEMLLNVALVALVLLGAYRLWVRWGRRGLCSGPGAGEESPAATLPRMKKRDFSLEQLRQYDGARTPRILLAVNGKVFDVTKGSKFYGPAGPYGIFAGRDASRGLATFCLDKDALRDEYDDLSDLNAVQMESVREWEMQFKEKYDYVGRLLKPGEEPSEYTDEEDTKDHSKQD

[7] = target: T7, AEA-DA-modified peptides in Neuro2a cells (Mus musculus, UniProt Q99JB2); settings: AEA-DA-modified peptide STOML2 Q99JB2 292-322, SEQ ID NO 107; probe 100 μM, 12 replicates
T7 construct: endogenous in cells; host or cells: Neuro2a
T7 sequence (Q99JB2 29-353): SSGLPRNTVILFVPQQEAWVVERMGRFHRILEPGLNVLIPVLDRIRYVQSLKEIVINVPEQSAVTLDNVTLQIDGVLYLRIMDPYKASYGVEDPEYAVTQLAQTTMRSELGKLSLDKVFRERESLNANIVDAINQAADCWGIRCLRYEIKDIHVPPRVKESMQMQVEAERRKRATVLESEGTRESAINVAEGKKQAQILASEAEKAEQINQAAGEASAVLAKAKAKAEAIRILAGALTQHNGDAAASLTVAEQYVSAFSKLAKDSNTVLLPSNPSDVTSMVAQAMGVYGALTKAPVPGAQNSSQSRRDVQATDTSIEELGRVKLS

[8] = target: T8, AEA-DA-modified peptides in Neuro2a cells (Mus musculus, UniProt Q99LR1); settings: AEA-DA-modified peptide ABHD12 Q99LR1 263-284, SEQ ID NO 1; probe 100 μM, 12 replicates
T8 construct: endogenous in cells; host or cells: Neuro2a
T8 sequence (Q99LR1 whole entry): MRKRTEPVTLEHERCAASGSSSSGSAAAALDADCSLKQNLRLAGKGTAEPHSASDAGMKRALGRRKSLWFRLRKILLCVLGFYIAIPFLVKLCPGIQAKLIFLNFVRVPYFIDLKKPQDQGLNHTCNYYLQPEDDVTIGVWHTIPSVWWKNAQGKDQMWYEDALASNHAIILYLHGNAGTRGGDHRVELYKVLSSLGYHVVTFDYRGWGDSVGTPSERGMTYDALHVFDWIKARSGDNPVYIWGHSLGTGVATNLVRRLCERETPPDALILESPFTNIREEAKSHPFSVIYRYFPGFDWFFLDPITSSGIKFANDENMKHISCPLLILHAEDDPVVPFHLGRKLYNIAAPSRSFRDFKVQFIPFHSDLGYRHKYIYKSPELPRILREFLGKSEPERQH

[9] = target: T9, AEA-DA-modified peptides in Neuro2a cells (Mus musculus, UniProt Q99M71); settings: AEA-DA-modified peptide EPDR1 Q99M71 171-182, SEQ ID NO 38; probe 100 μM, 12 replicates
T9 construct: endogenous in cells; host or cells: Neuro2a
T9 sequence (Q99M71 38-224): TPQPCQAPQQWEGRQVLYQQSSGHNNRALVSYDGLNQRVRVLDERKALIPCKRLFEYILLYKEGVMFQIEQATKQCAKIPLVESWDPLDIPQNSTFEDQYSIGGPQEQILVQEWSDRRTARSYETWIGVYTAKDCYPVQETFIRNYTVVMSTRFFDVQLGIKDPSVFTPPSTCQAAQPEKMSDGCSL

[10] = target: T10, AEA-DA-modified peptides in Neuro2a cells (Mus musculus, UniProt Q9CPU0); settings: AEA-DA-modified peptide GLO1 Q9CPU0 160-180, SEQ ID NO 42; probe 100 μM, 12 replicates
T10 construct: endogenous in cells; host or cells: Neuro2a
T10 sequence (Q9CPU0 whole entry): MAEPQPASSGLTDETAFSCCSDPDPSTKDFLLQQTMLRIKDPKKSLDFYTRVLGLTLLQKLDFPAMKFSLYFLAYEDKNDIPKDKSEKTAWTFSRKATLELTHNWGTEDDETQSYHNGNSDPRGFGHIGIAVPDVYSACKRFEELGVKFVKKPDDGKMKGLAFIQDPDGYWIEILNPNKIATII

[11] = target: T11, AEA-DA-modified peptides in Neuro2a cells (Mus musculus, UniProt Q9Z2Z6); settings: AEA-DA-modified peptide SLC25A20 Q9Z2Z6 179-195, SEQ ID NO 103; probe 100 μM, 12 replicates
T11 construct: endogenous in cells; host or cells: Neuro2a
T11 sequence (Q9Z2Z6 whole entry): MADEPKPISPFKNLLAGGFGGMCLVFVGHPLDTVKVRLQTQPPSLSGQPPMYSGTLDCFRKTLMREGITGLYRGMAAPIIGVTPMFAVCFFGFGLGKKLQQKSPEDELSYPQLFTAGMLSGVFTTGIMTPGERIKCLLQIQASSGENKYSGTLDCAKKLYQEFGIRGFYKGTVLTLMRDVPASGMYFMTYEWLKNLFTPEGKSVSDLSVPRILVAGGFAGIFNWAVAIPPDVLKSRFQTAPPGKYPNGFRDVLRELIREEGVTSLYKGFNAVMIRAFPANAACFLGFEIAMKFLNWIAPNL

**Q.** Which Times observed [1] does the source give for `C#CCCCC1(CC/C=C\C/C=C\C/C=C\CCCC(=O)NCCO)N=N1` [AEA-DA, (5Z,8Z,11Z)-N-(2-hydroxyethyl)-14-(3-(pent-4-yn-1-yl)-3H-diazirin-3-yl)tetradeca-5,8,11-trienamide] here?
**A.** The Times observed was 9.

**Q.** What about the Times observed [2] of the same compound?
**A.** The Times observed was 8.

**Q.** And the Times observed [3]?
**A.** Its Times observed is 5.

**Q.** And the Times observed [4]?
**A.** The Times observed was 2.

**Q.** And the Times observed [5]?
**A.** The Times observed was 3.

**Q.** What about the Times observed ([6]; AEA-DA-modified peptide PGRMC2 Q80UU9 74-92, SEQ ID NO 84) of the same compound?
**A.** Its Times observed is 2.

**Q.** And the Times observed ([6]; AEA-DA-modified peptide PGRMC2 Q80UU9 130-144, SEQ ID NO 83)?
**A.** The Times observed was 9.

**Q.** And the Times observed [7]?
**A.** Its Times observed is 2.

**Q.** What about the Times observed [8] of the same compound?
**A.** Its Times observed is 2.

**Q.** And the Times observed [9]?
**A.** The Times observed was 3.

**Q.** What about the Times observed [10] of the same compound?
**A.** The Times observed was 2.

**Q.** And the Times observed [11]?
**A.** The Times observed was 4.
